Experimental data reported in patent US11072598B2, “Somatostatin modulators and uses thereof” (CRINETICS PHARMACEUTICALS, INC., priority 2017, dated 2021).

target: T1, human somatostatin receptor subtype 2 (Homo sapiens, UniProt P30874); experiment: cAMP functional assay for SSTR2 agonists; format: cell-based; details: inhibition of cAMP activities via human SST2 receptor (SSTR2), CHO-K1 cells; read-out: EC50
T1 construct: expressed in transfected cells
How it was run: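 CHO-K1 cells stably expressing human SSTR2 were treated for 20 min at 37 °C with compound plus NKH477 (added as 1.6 μM) in HBSS with IBMX. Intracellular cAMP was measured by HTRF against a standard curve. EC50 values came from concentration-response curves.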

T1 sequence (P30874 whole entry): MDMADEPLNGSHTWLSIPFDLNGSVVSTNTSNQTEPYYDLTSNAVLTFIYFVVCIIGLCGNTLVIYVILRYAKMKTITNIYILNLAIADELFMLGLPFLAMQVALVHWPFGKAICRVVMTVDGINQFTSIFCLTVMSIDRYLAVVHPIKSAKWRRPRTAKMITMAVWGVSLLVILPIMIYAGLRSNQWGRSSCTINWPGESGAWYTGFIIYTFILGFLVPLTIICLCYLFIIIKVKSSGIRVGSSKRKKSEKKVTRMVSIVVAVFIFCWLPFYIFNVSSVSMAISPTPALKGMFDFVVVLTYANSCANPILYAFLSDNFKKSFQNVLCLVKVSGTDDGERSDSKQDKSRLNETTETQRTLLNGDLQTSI

Row | Compound | EC50
1 | Cc1cc(F)cc(-c2cnnc(-c3cc4ccc(C#N)cc4[nH]3)c2N2CCC(N)CC2)c1 [Compound 3-12, 2-[4-(4-aminopiperidin-1-yl)-5-(3-fluoro-5-methylphenyl)pyridazin-3-yl]-1H-indole-6-carbonitrile] | < 10 nM
2 | Cc1cc(F)cc(-c2cnnc(-c3cc4ccc(-c5nn[nH]n5)cc4[nH]3)c2N2CCC(N)CC2)c1 [Compound 3-15, 1-[5-(3-fluoro-5-methylphenyl)-3-[6-(2H-1,2,3,4-tetrazol-5-yl)-1H-indol-2-yl]pyridazin-4-yl]piperidin-4-amine] | > 100 nM
3 | N#CCOc1cc(F)cc2nc(-c3c(N)ncc(-c4cc(F)cc(Cl)c4)c3N3CCC(N)CC3)[nH]c12 [Compound 1-87, 2-({2-[2-amino-4-(4-aminopiperidin-1-yl)-5-(3-chloro-5-fluorophenyl)pyridin-3-yl]-5-fluoro-1H-1,3-benzodiazol-7-yl}oxy)acetonitrile] | < 10 nM
4 | Cc1cc(F)cc(-c2cnc(N)c(-c3nc4ncccc4[nH]3)c2N2CCC(N)CC2)c1 [Compound 1-52, 4-(4-aminopiperidin-1-yl)-5-(3-fluoro-5-methylphenyl)-3-{1H-imidazo[4,5-b]pyridin-2-yl}pyridin-2-amine] | < 10 nM
5 | Cc1cc(F)cc(-c2cnc(N)c(-c3nc4cccc(Cl)c4[nH]3)c2N2CCC(N)CC2)c1 [Compound 1-73, 4-(4-aminopiperidin-1-yl)-3-(7-chloro-1H-1,3-benzodiazol-2-yl)-5-(3-fluoro-5-methylphenyl)pyridin-2-amine] | < 10 nM
6 | 4-(4-aminopiperidin-1-yl)-5-(3-fluoro-5-methylphenyl)-3-{5-[(hydroxyimino)methyl]-1H-1,3-benzodiazol-2-yl}pyridin-2-amine [Compound 1-47] | < 10 nM
7 | Cc1cc(F)cc(-c2cnc(N)c(-c3nc4cccc(C#N)c4[nH]3)c2N2CCC(N)CC2)c1 [Compound 1-21, 2-[2-amino-4-(4-aminopiperidin-1-yl)-5-(3-fluoro-5-methylphenyl)pyridin-3-yl]-1H-1,3-benzodiazole-7-carbonitrile] | < 10 nM
8 | Cc1cc(Cl)cc(-c2cnc(N)c(C=NOC(C)(C)C)c2N2CCC(N)CC2)c1 [Compound 1-38] | < 10 nM
9 | Cc1cc(F)cc(-c2cnc(N)c(-c3nc4cc(OC5CC5)ccc4[nH]3)c2N2CCC(N)CC2)c1 [Compound 1-20, 4-(4-aminopiperidin-1-yl)-3-(5-cyclopropoxy-1H-1,3-benzodiazol-2-yl)-5-(3-fluoro-5-methylphenyl)pyridin-2-amine] | < 10 nM
10 | Cc1cc(F)cc(-c2cnc(N)c(C=NOC(C)C)c2N2CCC(N)CC2)c1 [Compound 1-34] | < 10 nM
11 | CNc1ncc(-c2cc(C)cc(F)c2)c(N2CCC(N)CC2)c1-c1nc2cccc(Cl)c2[nH]1 [Compound 1-72, 4-(4-aminopiperidin-1-yl)-3-(7-chloro-1H-1,3-benzodiazol-2-yl)-5-(3-fluoro-5-methylphenyl)-N-methylpyridin-2-amine] | < 10 nM
12 | Cc1cc(F)cc(-c2cnnc(-c3cc4cc(Cl)ccc4[nH]3)c2N2CCC(N)CC2)c1 [Compound 3-1, 1-[3-(5-chloro-1H-indol-2-yl)-5-(3-fluoro-5-methylphenyl)pyridazin-4-yl]piperidin-4-amine] | < 10 nM
13 | Cc1cc(F)cc(-c2cnc(N)c(-c3nc4ccc(F)c(F)c4[nH]3)c2N2CCC(N)CC2)c1 [Compound 1-15, 4-(4-aminopiperidin-1-yl)-3-(6,7-difluoro-1H-1,3-benzodiazol-2-yl)-5-(3-fluoro-5-methylphenyl)pyridin-2-amineine] | < 10 nM
14 | Cc1cc(F)cc(-c2cnc(N)c(-c3nc4cc(OC5COC5)ccc4[nH]3)c2N2CCC(N)CC2)c1 [Compound 1-16, 4-(4-aminopiperidin-1-yl)-5-(3-fluoro-5-methylphenyl)-3-[5-(oxetan-3-yloxy)-1H-1,3-benzodiazol-2-yl]pyridin-2-amine] | < 10 nM
15 | Cc1cc(F)cc(-c2cnc(O)c(-c3nc4cc(F)c(F)cc4[nH]3)c2N2CCC(N)CC2)c1 [Compound 2-7, 4-(4-aminopiperidin-1-yl)-3-(5,6-difluoro-1H-1,3-benzodiazol-2-yl)-5-(3-fluoro-5-methylphenyl)pyridin-2-ol] | 10 to 100 nM
16 | N#CCOc1cc(F)c2[nH]c(-c3c(N)ncc(-c4cc(F)cc(Cl)c4)c3N3CCC(N)CC3)nc2c1 [Compound 1-88, 2-({2-[2-amino-4-(4-aminopiperidin-1-yl)-5-(3-chloro-5-fluorophenyl)pyridin-3-yl]-7-fluoro-1H-1,3-benzodiazol-5-yl}oxy)acetonitrile] | < 10 nM
17 | CONC(=O)c1cccc2nc(-c3c(N)ncc(-c4cc(C)cc(F)c4)c3N3CCC(N)CC3)[nH]c12 [Compound 1-17, 2-[2-amino-4-(4-aminopiperidin-1-yl)-5-(3-fluoro-5-methylphenyl)pyridin-3-yl]-N-methoxy-1H-1,3-benzodiazole-7-carboxamide] | 10 to 100 nM
18 | Nc1ncc(-c2cc(F)cc(F)c2)c(N2CCC(N)CC2)c1-c1nc2cc(OC(F)(F)F)ccc2[nH]1 [Compound 1-86, 4-(4-aminopiperidin-1-yl)-5-(3,5-difluorophenyl)-3-[5-(trifluoromethoxy)-1H-1,3-benzodiazol-2-yl]pyridin-2-amine] | < 10 nM
19 | Cc1cc(F)cc(-c2cnc(N)c(-c3nc4cc5c(cc4[nH]3)OC(F)(F)O5)c2N2CCC(N)CC2)c1 [Compound 1-31, 4-(4-aminopiperidin-1-yl)-3-{5,5-difluoro-4,6-dioxa-10,12-diazatricyclo[7.3.0.0^3,7]dodeca-1,3 (7),8,10-tetraen-11-yl}-5-(3-fluoro-5-methylphenyl)pyridin-2-amine] | < 10 nM
20 | COc1cc(F)cc2nc(-c3c(N)ncc(-c4cc(F)cc(Cl)c4)c3N3CCC(N)CC3)[nH]c12 [Compound 1-90, 4-(4-aminopiperidin-1-yl)-5-(3-chloro-5-fluorophenyl)-3-(5-fluoro-7-methoxy-1H-1,3-benzodiazol-2-yl)pyridin-2-amine] | < 10 nM
21 | Cc1cc(F)cc(-c2cnc(N)c(-c3nc4cc(S(N)(=O)=O)ccc4[nH]3)c2N2CCC(N)CC2)c1 [Compound 1-9, 2-[2-amino-4-(4-aminopiperidin-1-yl)-5-(3-fluoro-5-methylphenyl)pyridin-3-yl]-1H-1,3-benzodiazole-5-sulfonamide] | < 10 nM
22 | N#Cc1cc(F)cc(-c2cnc(N)c(-c3nc4cc(Cl)ccc4[nH]3)c2N2CCC(N)CC2)c1 [Compound 1-32, 3-[6-amino-4-(4-aminopiperidin-1-yl)-5-(5-chloro-1H-1,3-benzodiazol-2-yl)pyridin-3-yl]-5-fluorobenzonitrile] | < 10 nM
23 | Cc1cc(F)cc(-c2cnc(N3CCNCC3)c(-c3nc4cc(Cl)ccc4[nH]3)c2N2CCC(N)CC2)c1 [Compound 4-11, 1-[3-(5-chloro-1H-1,3-benzodiazol-2-yl)-5-(3-fluoro-5-methylphenyl)-2-(piperazin-1-yl)pyridin-4-yl]piperidin-4-amine] | < 10 nM
24 | COc1cc(F)cc(-c2cnc(N)c(-c3nc4cc(F)cc(F)c4[nH]3)c2N2CCC(N)CC2)c1 [Compound 1-67, 4-(4-aminopiperidin-1-yl)-3-(5,7-difluoro-1H-1,3-benzodiazol-2-yl)-5-(3-fluoro-5-methoxyphenyl)pyridin-2-amine] | < 10 nM
